Tests used:
Format in all cases: cell-based
[1] = system: HEK293/EBNA cells; assay: IP accumulation (IP-One HTRF) in untransduced HEK-293/EBNA cells
[2] = system: α1A-AR; assay: Ca2+ transient response (FLIPR, fluo3) in α1A-AR transduced HEK-293/EBNA cells; details: 100 μM Iso, α1A-AR_HEK-293/EBNA
Procedure: Prior to experiments, cells were transduced with baculovirus strains designed for transient expression of α1A-AR or aldehyde oxidase (negative control). This was performed by incubating cells with virus (MOI 100–150) for 3 to 4 h, followed by exchange into fresh serum free growth medium supplemented with 4 mM sodium butyrate (NaBu). Cells were grown for another 14 to 18 h and then examined for agonist-evoked responses in transient Ca^2+ release, IP accumulation or pERK activation assays. The surface receptor expression density was determined by flow cytometry via immunofluorescence labeling of an N-terminal HA epitope tag on the receptor and radioligand binding in partially purified membranes.
Cells were resuspended in Hank’s balanced salt solution (Invitrogen) supplemented with 2 mM CaCl2, 10 mM HEPES pH 7.4, 2.5 mM probenecid, plus 1g/L each of glucose and bovine serum albumin (BSA), and seeded in poly-D-lysine coated 96-well black plates with transparent bottom (Costar) at a density of 50,000 cells/0.1 mL per well. Cells were then incubated for 1 h at 37°C with an additional 0.1 mL of buffer containing 4 μM fluo3-AM that was diluted from a stock solution containing 1 mM fluo3-AM dye in DMSO with 10% pluronic acid. After dye loading incubation, plates were washed twice with 100 μL of buffer and refilled with 100 μL of assay buffer. In experiments testing the effect of antagonists, 25 μL of buffer from wells of washed cells were replaced with 25 μL of vehicle or 4× antagonist solution. Pre-incubation of ligand with dye-loaded cells proceeded for 5–30 minutes immediately prior to measurements of agonist-evoked responses. Agonist-evoked Ca^2+ mobilization responses of cell populations were monitored at room temperature simultaneously in all wells of the assay plate using the plate-imaging fluorometric reader FLIPR (MDS Analytical Technologies, Sunnyvale, CA). […] The amplitudes of Ca^2+ transient responses are reported as ΔF/F0, or fold-change in Ca^2+ dye fluorescence relative to the baseline signal ΔF/F0 = (F-F0)/F0 +1 (where ΔF is maximal fluorescence intensity observed following agonist application, F0 = baseline fluorescence, or average intensity measured over the 10 s interval prior to agonist application). Image acquisition rates were varied from 1 Hz during the first 100 s of measurements to 0.5 Hz for the remaining time of the recording.
Graphs shown reflect either pooled or representative data (see figure legends). For concentration-response analysis, results from Ca^2+ mobilization experiments were plotted as ΔF/F0 vs. agonist concentration and fit to a sigmoidal concentration-response equation using the GraphPad Prism software package. In cases where biphasic concentration-response curves were observed data were fit to a two-site concentration-response model: F(X)=R0+(Rmax−R0)[Fr1/(1+10^X-logEC50,1)+(1−Fr1)/(1+10^X-logEC50,2)] (1) , where X is the logarithm of the agonist concentration, R0 and Rmax are respectively the response minimum and maximum; Fr1 is the response fraction attributable to receptor characterized by half effective concentration of the first response phase (EC50,1), with the reminder response attributable to the second half effective concentration (EC50,2). For radioligand binding experiments, B max values were calculated from maximum binding using the equation B max = (SB × ([…] + [L])/[L]), where SB is the specific binding expressed as fmol per mg of membrane protein, and [L] is the ligand concentration.

[3] = target: T1, α1A-AR (Homo sapiens, UniProt P35348); assay: Translocation of GFP-tagged β-arrestin-1/2 in HEK293 cells expressing FLAG-α1A-AR (confocal microscopy); design: expressed in transfected cells; host or cells: HEK-293/EBNA (baculovirus transduction, NaBu induction); details: HEK293, 1 μM A-61603 or 1 mM Iso
T1 sequence (P35348 1-466): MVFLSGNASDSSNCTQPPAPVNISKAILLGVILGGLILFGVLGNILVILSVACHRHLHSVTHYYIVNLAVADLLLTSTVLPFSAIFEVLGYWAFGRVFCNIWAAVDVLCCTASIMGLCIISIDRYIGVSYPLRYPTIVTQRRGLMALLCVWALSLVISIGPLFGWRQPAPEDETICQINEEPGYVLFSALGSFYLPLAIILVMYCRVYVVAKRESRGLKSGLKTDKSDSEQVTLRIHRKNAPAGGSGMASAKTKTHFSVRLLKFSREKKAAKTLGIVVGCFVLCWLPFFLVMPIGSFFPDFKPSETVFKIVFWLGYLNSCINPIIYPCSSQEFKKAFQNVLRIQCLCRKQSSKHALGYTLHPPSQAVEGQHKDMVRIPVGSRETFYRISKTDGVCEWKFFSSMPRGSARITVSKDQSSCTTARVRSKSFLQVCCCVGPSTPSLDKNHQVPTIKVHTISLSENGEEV
Procedure: HEK293 cells were transiently co-transfected with FLAG-tagged α1A – AR and one of the following GFP-tagged proteins: Rab5 (Rab5 Q79L) variant, Rab11 (Rab11 S25N) variant, β-arrestin-1 or β-arrestin-2. Rab5 and Rab11 were kindly provided by Dr. Marino Zerial (Max Planck Institute of Molecular Cell Biology and Genetics, Dresden, Germany). […] After treatment, cells were fixed with freshly prepared 3.7% paraformaldehyde in PBS for 15 min at room temperature. Subsequently, cells were permeabilized with 0.1% Triton X-100 (Sigma-Aldrich) in PBS for 5 min, followed by nonspecific binding site blocking with 3% normal serum (Santa Cruz Biotechnology) in PBS for 1 h. Incubation with Alexa Fluor-568 conjugated anti-FLAG antibodies in blocking solution was done as directed by the manufacturer. Confocal microscopy was performed using a Zeiss LSM 510 META laser scanning microscope (Carl Zeiss, Inc., Thornwood, NY) equipped with a 60X objective, using the following laser wavelengths: excitation at 488 nm and emission at 505–530 nm; excitation at 543 nm and emission at 560–615 nm.
HEK293 cells were co-transfected with FLAG-tagged α1A – AR and GFP- tagged β-arrestin-1 (left panels) or β-arrestin-2 (right panels). […] Cells were then fixed, permeabilized, stained with Alexa Fluor-568 conjugated anti-FLAG antibodies, and analyzed employing confocal microscopy.

SMILES: CC(C)NCC(O)c1ccc(O)c(O)c1 (centres unmarked) [Iso, isoproterenol]
- EC50 IP ([1]; HEK293/EBNA untransduced): BQL
- IP formation ([1]; untransduced cells, data not shown): not detectable
- decline from peak amplitude within 100 sec [2]: > 75%
- delay from addition of agonist to the rise in Ca2+ [2]: 5 to 10 s
- translocation of β-arrestin-1 / β-arrestin-2 [3]: did not cause visible β-arrestin rearrangement
